# PMC4490100 (Clinical cancer research : an official journal of the …, 2015)
# What was measured:
# [1] = tested on: mononuclear cells from normal bone marrow; type: cell-based, human
# OCI-AML3 cells = assay: Cell death assay; type: cell-based, human; settings: OCI-AML3, overnight at 37 °C, 40 μM or higher, AnnexinV-FITC/PI flow cytometry
# human leukemia cells = assay: Leukemia cell morphology after overnight incubation; type: cell-based; settings: overnight incubation (Fig. 4C)
substance,measurement,setting,value
CGRRAGGSC-GG-D(KLAKLAK)2 (disulfide) [BMTP-11],effects on mononuclear cells from normal bone marrow,[1],no detectable effects
same,cell death (fraction of cells),OCI-AML3 cells,~ 90%
same,effect on leukemia cell morphology,human leukemia cells,affected the morphology
